What all share (experiment): SPR
Common to all, as to format: binding

In assay [1] the target is T1, CD99 (Homo sapiens, UniProt P14209).
T1 sequence (P14209 23-185): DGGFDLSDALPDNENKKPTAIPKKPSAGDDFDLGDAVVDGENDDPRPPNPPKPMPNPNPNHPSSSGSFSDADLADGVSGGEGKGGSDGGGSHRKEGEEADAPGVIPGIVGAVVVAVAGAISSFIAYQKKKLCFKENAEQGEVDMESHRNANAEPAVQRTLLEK

Assay [2] addresses CD99 (Homo sapiens, UniProt P14209). The source holds these as a separate data set.
In assay [3] the target is T1, CD99. The source holds these as a separate data set.

Read-outs that look alike come from different tables or passages of the source.

The Kd is the concentration at which binding is half-saturated. Low values mean higher affinity, high ones lower affinity. For the molecule `Nc1nc(Cl)nc2c1ncn2[C@@H]1O[C@H](CO)[C@@H](O)[C@@H]1F` [clofarabine], binding at CD99 [1] was characterised by a dissociation constant (Kd) of 5.3 ± 3.2 µM.
In turn, `Nc1nc(Cl)nc2c1ncn2[C@H]1C[C@H](O)[C@@H](CO)O1` [cladribine] yielded a Kd on CD99 [2] of 3.8 ± 3.3 µM.
In the case of `Nc1nc(Cl)nc2c1ncn2[C@@H]1O[C@H](COP(=O)(O)OP(=O)(O)OP(=O)(O)O)[C@@H](O)[C@@H]1F` [clofarabine-5’-triphosphate], the Kd at CD99 [3] is 3.7 µM.

(Values after publication PMC9936921 (Oncogene, 2018).)
